Publication PMC12040169 (PLOS Biology, 2025)
Values joined by “and” are separate entries in the source; they are usually repeats but may differ in a detail not shown here. Equal values may be shown once.

Legend:
HeLa = details: bulk resorufin, single well, 28.5 h, 10 µM, Bulk resorufin fluorescence
in vitro = details: human, hela cells, % viability

Structure (SMILES)	% viability (HeLa)	viability at 28.5 h, 10 µM (in vitro) [%]
O=C(O)CCS(=O)(=O)c1cccc2cccnc12 [CBK131911]	92.5%	102
CCN(Cc1ccccc1)C(=O)NCC1COc2ccccc2O1 (stereo not drawn) [CBK155213]	89.3%	103
CCN(CC)c1ccc(NC(=O)N2CCN(Cc3ccccc3)CC2)cc1 [CBK155645]	90.4%	99.7
CC(=O)NCc1cccc(-c2cc(C(=O)Nc3ccc4c(c3)OCCO4)cnc2N2CCOCC2)c1 [CBK159355C]	102%	90.1
COc1ccc(C(=O)Nc2ccc(OCC(=O)O)cc2)cc1 [CBK260894]	85.6%	91.4
COc1ccc(C(CC(=O)O)NC(=O)c2ccccc2)cc1 (stereo not drawn) [CBK261121]	93.9%	89.3
O=C(O)CCNc1c(C(=O)O)cnc2ccccc12 [CBK261139]	89%	83.3
COc1ccc(/C=C/C(=O)O)cc1S(=O)(=O)N1CCOCC1 [CBK261247]	84.7%	101
O=C(O)/C=C\C(=O)Nc1ccccc1C#Cc1ccccc1 [CBK261680]	83.2%	82.9
CC1(C)CC(NC(=O)/C=C/C(=O)O)CC(C)(C)N1 [CBK262018]	90.9%	88.4
Cc1ccc(C(=O)NCC(=O)NCC(=O)O)cc1 [CBK262170]	91.7%	103
O=C(O)C(Cc1ccc(O)cc1)N1C(=O)c2ccccc2C1=O (stereo not drawn) [CBK262479]	80.4%	84.1
O=C(O)c1cc(S(=O)(=O)NCc2ccco2)c(Cl)cc1N1CCCCC1 [CBK263409]	92.5%	108
CCN(CC)CCNC(=O)/C(=N\O)c1ccccn1 [CBK264538]	93.9%	90.6
Cn1c(=O)c2c(-c3ccccc3)n(-c3ccc(C(=O)O)cc3)cc2n(C)c1=O [CBK265040]	98.4%	84
O=C(CC1SC(Nc2ccc(O)cc2)=NC1=O)c1ccccc1 (stereo not drawn) [CBK267009]	89%	98.5
O=C(O)C1(c2ccccc2)CCN(S(=O)(=O)c2ccc(F)cc2)CC1 [CBK267571]	87.8%	92.9
O=C(O)CCS(=O)(=O)c1nc(-c2ccccc2)cc(C(F)(F)F)n1 [CBK268832]	102%	104
Cc1nnc(SCC(=O)Nc2ccc(CN3CCOCC3)cc2)s1 [CBK269849]	112%	96.4
O=c1cc(CSc2ccccn2)[nH]c2[nH]n(-c3ccccc3)c(=O)c12 [CBK269895]	109%	92.7
O=C(Cn1c([C@H]2CCCO2)cc2cccnc21)NC1CC1 [CBK282274]	102%	94.8
O=C(Cn1c([C@@H]2CCCO2)cc2cccnc21)N1CCCCCC1 [CBK282285]	101%	88
CC1CCCN(Cc2c([C@H]3CCCO3)[nH]c3ncccc23)C1 (stereo partly drawn) [CBK282287]	106%	110
CC[C@@H](Cn1nc(-c2cccs2)ccc1=O)NC(=O)c1ccco1 [CBK282308]	87.3%	94.7

Structure (SMILES)	% viability (HeLa)	viability at 28.5 h, 10 µM (in vitro) [%]
O=C(NC1CCCCC1)[C@H]1C=CCN1C(=O)c1ccc(F)cc1F [CBK282311]	97.2%	95
CC[C@@H](Cn1nc(-c2ccc(F)c(F)c2)ccc1=O)NC(=O)C1CC1 [CBK282313]	89.3%	90.6
CC(C)[C@H](Cn1nc(C2CC2)ccc1=O)NC(=O)C1CCC1 [CBK282367]	91.4%	85.1
O=C(NCCc1ccccc1)[C@H]1C=CCN1C(=O)c1ccc(F)cc1 [CBK282383]	96.3% and 92.6%	89.4
CC[C@@H](Cn1ncc2ccccc2c1=O)NC(=O)C1CCC1 [CBK282384]	82%	93.4
CC(C)(C)NC(=O)CN1C(=O)[C@H]2CCCN2C(=O)c2ccccc21 [CBK282428]	107%	89.5
O=C(CN1C(=O)[C@H]2CCCN2C(=O)c2ccccc21)NC1CCCC1 [CBK282438]	110%	112
C=CCNC(=O)[C@H]1C=CCN1S(=O)(=O)c1cccc2ccccc12 [CBK282440]	102%	91
COc1cccc(CN2C(=O)[C@H]3CCCN3C(=O)c3ccccc32)c1 [CBK282852]	106%	108
O=C(CN1C(=O)[C@H]2CCCN2C(=O)c2ccccc21)NCC1CC1 [CBK282853]	88.6%	87.6
O=C1[C@@H]2CCCN2C(=O)c2ccccc2N1Cc1ccccc1F [CBK282855]	106%	93.9
O=C1[C@@H]2CCCN2C(=O)c2ccccc2N1Cc1ccc(F)cc1 [CBK282856]	99.5%	117
CCC(C)NC(=O)Cn1c([C@H]2CCCO2)cc2cccnc21 (stereo partly drawn) [CBK282874]	100%	88.1
CC(CCN1CC2C[C@@H](O)CN2C[C@H]1C)c1ccccc1 (stereo partly drawn) [CBK283010]	89.2%	82.4
C[C@H](Cn1c(C(F)(F)F)cc2cccnc21)NC(=O)C1CC1 [CBK283227]	89.4%	93.7
O=C(C1CC1)N1CCC[C@H]1Cn1nc(-c2cccs2)ccc1=O [CBK284250]	80.9%	76.7
Cc1oc(C2CC2)cc1C(=O)N[C@H](C)Cn1nnc2ccccc21 [CBK284258]	80.8%	78.1
O=C(NC[C@@H]1CCCN(C(=O)c2cscn2)C1)c1cccs1 [CBK284263]	93.5%	85.7
CC(C)(C)OC(=O)N1CCC[C@H]([C@H](O)c2ccc(F)cc2)C1 [CBK284298]	80.1%	92.3
CC[C@H](Cn1ncc2ccccc2c1=O)NC(=O)c1ccco1 [CBK284300]	86.8%	78.6
CC[C@H](Cn1ncc2ccccc2c1=O)NC(=O)C1CCCC1 [CBK284302]	102%	94.2
O=C(C1CC1)N1CCC[C@H](Cn2nc(-c3cccs3)ccc2=O)C1 [CBK284314]	91.8%	74.7
O=C(NCCc1ccccc1)[C@@H]1C=CCN1C(=O)C1CC1 [CBK284315]	81.8%	93.6
O=C(NCCc1ccccc1)[C@@H]1C=CCN1C(=O)c1ccco1 [CBK284316]	90%	93

Structure (SMILES)	% viability (HeLa)	viability at 28.5 h, 10 µM (in vitro) [%]
C[C@@H](Cn1nnc2ccccc21)NC(=O)c1ccco1 [CBK284319]	86.3%	75.9
CCS(=O)(=O)N1CC=C[C@H]1C(=O)NCCc1ccccc1 [CBK284325]	89.7%	107
CC(C)(C)OC(=O)N1CCC[C@@H](CNC(=O)c2cccs2)C1 [CBK284332]	90.2%	104
CC(C)[C@@H](Cn1c(=O)oc2ccccc21)NC(=O)c1ccco1 [CBK284531]	86.1%	94.1
C[C@H](Cn1c(=O)oc2ccccc21)NC(=O)c1cccs1 [CBK284532]	90.7%	85
C[C@@H](Cn1c(=O)oc2ccccc21)NC(=O)Cc1cccs1 [CBK284533]	79.8%	92.9
C[C@H](Cn1nc2c(cc1=O)CCCCC2)NC(=O)c1cccs1 [CBK284545]	85.9%	101
C[C@@H]1CN2CCCC2CN1Cc1cccs1 (stereo partly drawn) [CBK284550]	98.3%	85.6
C[C@@H]1CN2CCCC2CN1CC1=Cc2ccccc2OC1 (stereo partly drawn) [CBK284552]	103%	88.6
C[C@@H]1CN2C[C@H](O)CC2CN1Cc1ccccc1C(F)(F)F (stereo partly drawn) [CBK284556]	100%	80.7
CS(=O)(=O)N1C2CCC(C2)[C@H]1COc1cccc(C(F)(F)F)c1 (stereo partly drawn) [CBK284596]	107%	98.7
O=C(C1CC1)N1C2CCC(C2)[C@H]1COc1ccc(F)cc1 (stereo partly drawn) [CBK284597]	100%	95
CCOC(=O)c1[nH]c(C)c(CN2CC3CCCN3C[C@@H]2C)c1C (stereo partly drawn) [CBK285043]	105%	110
C[C@H]1CN2C[C@H](O)CC2CN1Cc1cc(Br)cs1 (stereo partly drawn) [CBK285044]	94%	103
COc1ccc2c(CN3CC4CCCN4C[C@H]3C)cn(C)c2c1 (stereo partly drawn) [CBK285164]	84%	92.4
O=C(Cn1c([C@H]2CCCO2)cc2cccnc21)NC1CCCC1 [CBK285219]	85.4%	88.8
O=C(c1cccnc1)N1C2CCC(C2)[C@H]1COc1ccc(F)cc1 (stereo partly drawn) [CBK285268]	87.8%	90.2
C[C@@H]1CN2CCCC2CN1Cc1cc(F)cc(F)c1 (stereo partly drawn) [CBK285405]	105%	96.1
C[C@@H]1CN2CCCC2CN1Cc1ccsc1 (stereo partly drawn) [CBK285411]	109%	110
C[C@@H]1CN2C[C@H](O)CC2CN1Cc1cccc(C(F)(F)F)c1 (stereo partly drawn) [CBK285413]	88.1%	91.7
C=CCn1cc(CN2C[C@@H]3CCCN3C[C@H]2CCSC)c(C)n1 [CBK285420]	106%	87.6
COCCn1c(C)cc(CN2CC3CCCN3C[C@@H]2C)c1C (stereo partly drawn) [CBK285421]	101%	83.8
CCOc1ccc(CN2CC3CCCN3C[C@H]2C)cc1 (stereo partly drawn) [CBK285422]	100%	87.8
COCCn1cc(CN2CC3CCCN3C[C@H]2C)c2ccccc21 (stereo partly drawn) [CBK285427]	106%	95.7
